Measurements published in patent US8377875B2, “Therapeutics based on tau/microtubule dynamics” (Ramot at Tel-Aviv University Ltd., priority 2007, dated 2013).
Values belong to the molecule of their own block, whether it stands above or below them. Ends that are not written are not given here.

Key:
[1] = molecular target: T1, tau-three microtubule binding domain repeats (Homo sapiens, UniProt P10636); assay: Dot blot analysis of peptide binding to tau; settings: peptide 10^−3M spotted, 2 μM tau
T1 construct: made in house
Description: For Dot Blot analysis, 5 μl of each sample [vasoactive intestinal peptide VIP (Dangoor et al., Regul Pept, 137: 42-49 (2006)); negative control and NAP 10^−3M) was applied onto the nitrocellulose membrane (Schleicher & Schuell, Dassel, Germany), and was left to dry (2 hr, room temperature). The membrane was further incubated with 2 μM tau-three microtubule binding domain repeats (1.5 hr, room temperature). The non-specific sites were blocked by soaking in a blocking solution (10 mM Tris, 6 mM NaCl, 0.05% Tween 20) that was supplemented with 5% low-fat milk (1 hr at room temperature). The membrane was incubated with primary antibody (tau5 antibody 1:1000), dissolved in 5% milk in blocking solution (12 hours at 4 C). The membrane was then washed three times with the blocking solution (3×10 min), incubated with secondary antibody conjugated with horseradish peroxidase (HRP) (1 hr at room temperature) and washed again three times with blocking solution (10 min×3). The membrane was incubated with ECL reagent (Western blotting detection system; Amersham Biosciences) for 1 min, covered and exposed Biomax Light Film (Kodak, Rochester, N.Y., USA). […]

tubulin [2] = assay: Tubulin-NAP binding
[3] = test system: tubulin tyrosination cycle in rat pheochromocytoma cells (PC12); assay: Cell-based tubulin tyrosination cycle assay in PC12 cells (confocal microscopy, ELISA); settings: 2 hr
Description: Changes in the tubulin tyrosination cycle were used to study the effects of NAP on microtubule dynamics (Gozes and Littauer, Nature. 276:411-413 (1978)). This cycle includes the slow removal of the C-terminal tyrosine of microtubule alpha tubulin, resulting in Glu-tubulin and the fast re-addition of tyrosine (Tyr) to soluble alpha-tubulin in a reaction requiring ATP. […] A cell-based assay for anti-microtubule activity that relies on the properties above allows the identification of both microtubule-destabilizing and microtubule-stabilizing agents. The assay allows assessment of the relative degree of stable microtubule versus dynamic microtubules (Vassal et al., J Biomol Screen, 11: 377-389 (2006)) using confocal microscopy as well as quantitative Enzyme-Linked Immunosorbent Assay (ELISA).
Rat pheochromocytoma cells (PC12) were grown in Dulbecco's modified eagles medium (DMEM) supplemented with 5% fetal bovine serum and 10% donor horse serum 1% penicillin—streptomycin, 1% L-Glutamine (Beit Haemek, Israel) in an atmosphere of 5% CO2 and 95% air at 37° C. […] Cells were seeded on 96, 48 or 24 well plates in 100, 300 or 500 μl of medium volumes respectively and allowed to grow for 48 hr.
In short, medium was aspirated and cells were incubated for 3 min with 100, 300 or 500 μl warm MTSBT (Pipes pH 6.8 80 mM, EGTA 4 mM, MgCl2 1 mM, Triton X-100 0.5% v/v) buffer followed by 6 min with 100, 300 or 500 μl cold methanol (−20° C.). Blocking followed a re-hydration in cold TBST (NaCl 0.15 M, Tris-Cl pH 7.4, Triton X-100 0.1% v/v) followed by 5% non fat milk in TBST 10 min at room temp or −50 μg/ml of Goat IgG in AbDil [TBST+2% bovine serum albumin (Sigma, Rehovot Israel)] 10 min at room temp. For microtubule and nuclear staining, 50 μl (per well) of rat monocloncal antibodies detecting tyrosinated tubulin (YL1/2, Abcam, Cambridge, UK) and rabbit polyclonal antibodies detecting glutaminated tubulin (Abcam, Cambridge, UK) at 1:1000 dilution were added. After a 2 hr (37° C.) incubation the cells were washed twice with TBST or TBS and 50 μl per well of secondary goat anti-rat coupled by Cynine 3—Cy3 (1:1000), Cy2 goat anti rabbit (1:1000) (Jackson ImmunoResearch, West Grove, Pa., U.S.A), and Hoechst 33258 (Sigma) 1 μg/ml were added. Following one hour incubation at 37° C. and 3 washes in TBST or TBS, fluorescence was measured using Tecan Microplate fluorescent reader (Neoteck scientific instrumentation, Switzerland) infinite F200 and Magellan software version 6.3.
For visual inspection, cells were seeded on microscope cover slips, mounted on slides and inspected using confocal microscopy as before (Divinski et al. (2006)). […]

NIH 3T3 fibroblasts = settings: cited from earlier work
tau = tau (Homo sapiens, UniProt P10636); assay: Affinity chromatography on NAP-affinity column with tau-specific western blot; type: binding
[4] = test system: closed head injury in mice; settings: cited from earlier work
[5] = test system: MAP-2 expression in neuronal cells; settings: cited from earlier work
[6] = test system: model of fetal alcohol syndrome; settings: in vivo, ip; cited from earlier work
[7] = test system: microtubules (tubulin and tau); assay: Transmission electron microscopy of microtubules from mixtures of tubulin, tau and NAP; type: biochemical
Description: FIGS. 3A-E show electron microscopy studies were carried out on mixtures of tubulin, tau, and NAP. […] FIGS. 3A and 3C are 25,000× magnification; FIGS. 3B and 3D are 200,000× magnification. […] Additional electron microscopy studies were carried out on mixtures of NAP (1 pM, lanes 4,5,6. […]), tubulin 6 μM (lanes1,4, FIG. 3E) or 10 μM (lanes 2,3,5,6, FIG. 3E) and tau. Tubulin was obtained from Cytoskeleton (Denver, Colo., USA) and tau (0.7 μM) was purified from recombinant cDNA obtained from Professor Linda Amos (Kar et al., Embo J, 22: 70-77 (2003).). […] The box plot represents 3 different experiments (control vs. NAP-treated). Each experiment consists of either three or four repeats. P<0.001. The density of the microtubules was estimated by counting 20-23 fields in each of the experimental samples.
Transmission electron microscopy was carried out to identify and quantitate microtubule size and appearance in the presence and absence of NAP (in the microtubule pellets described above). Grids were stained with […].

tau hyperphosphorylation = settings: animal models; cited from earlier work
normal aging rats = settings: intranasal administration; cited from earlier work
cell cultures = settings: cited from earlier work
tubulin [8] = settings: cited from earlier work
beta tubulin = assay: Microtubule pelleting assay, western blot with TUB2.1 beta tubulin antibody; type: biochemical; settings: NAP 1 pM, tubulin 10 μM, tau ~2.5 μM; 6 independent experiments
Description: FIG. 5 illustrates the effect of NAP on beta tubulin precipitation (10 μM) with tau (2.5 μM) during microtubule (MT) assembly. NAP (1 pM) incubation apparently reduces beta tubulin in the microtubule pellet. The monoclonal antibody used (TUB2.1) interacts specifically with beta tubulin species. Gozes and Barnstable, Proc Natl Acad Sci USA, 79: 2579-2583 (1982). Blots were performed as before (Divinski et al., J Neurochem, 98: 973-984 (2006)). S=supernatant; P=pellet.
Densitometric scanning of the western blots (e.g. FIG. 5) including 6 independent experiments are depicted on the figure. S=supernatant; P=pellet; western blot antitubulin 2.1, 1:1, 400.
(§1) Tubulin, tau and NAP were prepared as described in Example 1. The microtubule pelleting assay was also carried out as in Example 1.
The resulting pellet was subjected to 12.0% polyacrylamide gel containing SDS (Kar et al. (2003)). Gels were either stained for proteins (Coomassie Brilliant Blue) or subjected to western analysis to specifically identify and quantitate tubulin in the microtubule pellet. Three different antibodies were used, rabbit anti tubulin (Gozes et al. (1977)), mouse monoclonal antibodies that prefers neuronal beta tubulin species, TUB2.1 (Boss et al., Brain Res, 433:199-218 (1987); Gozes and Barnstable (1982)) and tubulin beta III (neuronal enriched) antibodies as before (Divinski et al. (2006)). […]

microtubule formation = settings: cited from earlier work
beta III tubulin = molecular target: T2, beta III tubulin (Homo sapiens, UniProt Q13509); assay: Microtubule pelleting assay, western blot with beta III tubulin antibodies; type: biochemical; settings: NAP 1 pM, tubulin 10 μM, tau 2.5 μM; vs absence of NAP
T2 construct: purchased Cytoskeleton (Denver, Colo., USA)
Description: FIG. 7 illustrates the effect of NAP (1 pM) on beta III tubulin precipitation (10 μM) with tau (2.5 μM) during microtubule (MT) assembly. The experiment was carried out as in FIG. 5, except that beta III antibodies were used. S=supernatant; P=pellet. The reduction of beta III tubulin in the pellet was significant (P<0.05). Beta III tubulin is enriched in neurons (Banerjee et al., J. Biol. Chem. 265: 1794-1799 (1990); Joshi and Cleveland, Cell Motil. Cytoskeleton 16:159-163 (1990)).
Densitometric scanning of the western blots (e.g. FIG. 7) including 8 independent experiments are depicted on the figures. S=supernatant; P=pellet; western blot anti beta III tubulin, 1:1, 400. The reduction reached significance (*P<0.05).
as §1
The resulting pellet was subjected to 12.0% polyacrylamide gel containing SDS (Kar et al. (2003)). Gels were either stained for proteins (Coomassie Brilliant Blue) or subjected to western analysis to specifically identify and quantitate tubulin in the microtubule pellet. […]

ischemic injury = settings: after ischemic injury; cited from earlier work
tubulin [9] = assay: Microtubule pelleting assay, western blot with polyclonal tubulin antibodies; type: biochemical; settings: NAP 1 pM, tubulin 10 μM, tau ~2.5 μM
Description: FIG. 9 illustrates the effect of NAP on tubulin precipitation (10 μM) with tau (2.5 μM) during microtubule (MT) assembly. The experiment was carried out as in FIG. 5, except that polyclonal tubulin antibodies were used. (Gozes et al., FEBS Lett. 73(1):109-14 (1977)).
Densitometric scanning of the western blots (e.g. FIG. 9) including 6 independent experiments are depicted on the figure. S=supernatant; P=pellet; western blot anti tubulin, 1:1, 400-2000.
as §1
The resulting pellet was subjected to 12.0% polyacrylamide gel containing SDS (Kar et al. (2003)). Gels were either stained for proteins (Coomassie Brilliant Blue) or subjected to western analysis to specifically identify and quantitate tubulin in the microtubule pellet. Three different antibodies were used, rabbit anti tubulin (Gozes et al. (1977)), mouse monoclonal antibodies that prefers neuronal beta tubulin species, TUB2.1 (Boss et al., Brain Res, 433:199-218 (1987); Gozes and Barnstable (1982)) and tubulin beta III (neuronal enriched) antibodies as before (Divinski et al. (2006)). Western blotting was performed as before (Divinski et al. (2006)).

[10] = in vivo; cited from earlier work
[11] = test system: mixed neuroglial cultures from newborn rat cortex; assay: Neuroprotection against beta-amyloid 1-42 in mixed neuroglial cultures, MAP2 ELISA; type: cell-based; settings: 0.25 μM beta-amyloid 1-42, 5 days, n=10 per data point

T1 sequence (P10636 1-410 isoform P10636-5): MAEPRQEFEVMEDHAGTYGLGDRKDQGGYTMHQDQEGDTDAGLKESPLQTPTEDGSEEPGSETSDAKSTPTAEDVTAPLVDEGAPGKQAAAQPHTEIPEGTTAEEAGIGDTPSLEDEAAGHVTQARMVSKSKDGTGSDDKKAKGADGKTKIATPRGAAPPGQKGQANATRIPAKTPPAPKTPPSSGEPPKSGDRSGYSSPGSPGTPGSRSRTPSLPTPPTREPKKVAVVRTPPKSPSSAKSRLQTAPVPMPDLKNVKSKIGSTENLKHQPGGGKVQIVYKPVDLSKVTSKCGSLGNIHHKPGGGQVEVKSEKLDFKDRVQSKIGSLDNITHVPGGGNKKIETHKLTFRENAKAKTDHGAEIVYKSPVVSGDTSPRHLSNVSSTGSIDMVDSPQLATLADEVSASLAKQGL
tau, sequence (P10636 1-441 isoform P10636-8): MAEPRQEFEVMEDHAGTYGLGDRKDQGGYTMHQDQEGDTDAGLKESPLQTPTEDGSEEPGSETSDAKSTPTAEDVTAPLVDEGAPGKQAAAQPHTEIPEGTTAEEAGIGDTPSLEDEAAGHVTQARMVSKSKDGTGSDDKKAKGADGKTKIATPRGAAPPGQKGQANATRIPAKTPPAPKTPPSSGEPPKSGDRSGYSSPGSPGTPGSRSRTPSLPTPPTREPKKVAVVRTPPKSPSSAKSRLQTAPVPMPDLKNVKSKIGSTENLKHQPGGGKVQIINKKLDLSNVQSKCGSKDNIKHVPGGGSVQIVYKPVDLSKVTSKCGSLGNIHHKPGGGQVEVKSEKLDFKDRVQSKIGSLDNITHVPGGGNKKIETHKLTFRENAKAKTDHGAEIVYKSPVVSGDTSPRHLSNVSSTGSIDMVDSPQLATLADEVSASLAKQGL
T2 sequence (Q13509 whole entry): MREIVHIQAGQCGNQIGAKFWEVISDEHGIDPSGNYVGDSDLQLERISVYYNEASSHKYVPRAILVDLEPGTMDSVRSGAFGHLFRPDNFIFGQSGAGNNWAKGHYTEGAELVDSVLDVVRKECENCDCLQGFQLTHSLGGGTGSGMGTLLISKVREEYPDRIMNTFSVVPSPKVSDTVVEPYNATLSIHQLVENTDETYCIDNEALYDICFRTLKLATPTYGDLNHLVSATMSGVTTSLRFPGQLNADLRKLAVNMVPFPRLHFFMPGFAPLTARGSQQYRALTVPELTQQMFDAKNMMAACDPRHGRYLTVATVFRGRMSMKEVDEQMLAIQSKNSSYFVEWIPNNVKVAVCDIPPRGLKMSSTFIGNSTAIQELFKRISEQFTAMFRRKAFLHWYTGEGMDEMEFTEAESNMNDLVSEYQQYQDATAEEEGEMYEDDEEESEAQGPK
T2 sequence (Q71U36 whole entry partner): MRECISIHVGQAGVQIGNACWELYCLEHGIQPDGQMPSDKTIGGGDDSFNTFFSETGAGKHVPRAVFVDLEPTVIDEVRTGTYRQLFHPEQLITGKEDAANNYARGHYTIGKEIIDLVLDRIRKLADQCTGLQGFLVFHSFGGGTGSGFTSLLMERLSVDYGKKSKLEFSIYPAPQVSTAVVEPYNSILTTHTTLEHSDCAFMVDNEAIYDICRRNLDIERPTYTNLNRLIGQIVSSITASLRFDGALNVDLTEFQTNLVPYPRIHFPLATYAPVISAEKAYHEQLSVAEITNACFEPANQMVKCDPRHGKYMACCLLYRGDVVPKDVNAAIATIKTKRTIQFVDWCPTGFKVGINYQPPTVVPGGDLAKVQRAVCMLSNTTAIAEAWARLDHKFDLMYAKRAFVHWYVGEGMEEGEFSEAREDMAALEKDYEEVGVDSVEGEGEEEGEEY

binding to tau (dot blot) [1]: does not interact
Molecule: vasoactive intestinal peptide [VIP, reference compound]

effect on tubulin-NAP binding (tubulin [2]): diminish tubulin-NAP binding
Molecule: SALLRSIPA [ADNF-9]

Molecule: CC(=O)O[C@H]1C(=O)[C@@]2(C)[C@H]([C@H](OC(=O)c3ccccc3)[C@]3(O)C[C@H](OC(=O)[C@H](O)[C@@H](NC(=O)c4ccccc4)c4ccccc4)C(C)=C1C3(C)C)[C@]1(OC(C)=O)CO[C@@H]1C[C@@H]2O [paclitaxel, reference compound]
detyrosinated tubulin ([3]; paclitaxel 5 μM): significantly increased detyrosinated tubulin

Molecule: Asn-Ala-Pro-Val-Ser-Ile-Pro-Gln [NAP]
interaction with NIH 3T3 fibroblasts or other dividing cells (NIH 3T3 fibroblasts): does not interact | binding to tau (affinity chromatography) (tau): binds to tau | damage caused by closed head injury [4]: reducing damage | MAP-2 expression [5]: increases MAP-2 expression | fetal death after intraperitoneal injection of alcohol [6]: inhibited | microtubule density (electron microscopy) ([7]; NAP 1 pM, tubulin 6 or 10 μM, tau 0.7 μM, vs control w/o NAP): increased microtubule density | curves and microtubule length (electron microscopy) ([7]; NAP-treated samples vs control w/o NAP): increases | tau hyperphosphorylation (tau hyperphosphorylation): protected against tau hyperphosphorylation | binding to tau (dot blot) [1]: can bind directly to tau | dose response for activation of the tyrosination cycle (ELISA) ([3]; 10^−19 M—10^−7M): biphasic dose response curve | activity on the tubulin tyrosination cycle ([3]; NAP 10^−11M): not active | tyrosinated and detyrosinated alpha tubulin ([3]; NAP 10^−15M): significantly increased tyrosinated and detyrosinated alpha tubulin | performance in the Morris water maze (normal aging rats): improved performance | neuroprotective activity against a wide variety of toxins (cell cultures): neuroprotective activity at femtomolar concentrations | binding to tubulin (tubulin [8]): binds tubulin | reduction of beta tubulin in the microtubule pellet (TUB2.1 antibody) (beta tubulin): not significant | microtubule formation (turbidity) (microtubule formation): stimulate microtubule formation | decrease in tubulin beta III in the microtubule pellet (beta III tubulin): approximately 2 fold | infarct volume and motor function deficits (ischemic injury): reduced infarct volume and motor function deficits | decrease of tubulin in the microtubule pellet (polyclonal anti-tubulin antibodies) (tubulin [9]): no significant decrease | crossing of the blood-brain barrier [10]: can cross the blood-brain barrier

Molecule: TAPVPMPD [a NAP-like, tau-derived peptide]
concentrations at which neuronal survival was enhanced (MAP2 staining) [11]: 10^−19-10^−9 M
